The test concerns the target T1, HDAC6 (Homo sapiens, UniProt Q9UBN7).
T1 construct: purchased BPS Biosciences
T1 sequence (Q9UBN7 1-1215): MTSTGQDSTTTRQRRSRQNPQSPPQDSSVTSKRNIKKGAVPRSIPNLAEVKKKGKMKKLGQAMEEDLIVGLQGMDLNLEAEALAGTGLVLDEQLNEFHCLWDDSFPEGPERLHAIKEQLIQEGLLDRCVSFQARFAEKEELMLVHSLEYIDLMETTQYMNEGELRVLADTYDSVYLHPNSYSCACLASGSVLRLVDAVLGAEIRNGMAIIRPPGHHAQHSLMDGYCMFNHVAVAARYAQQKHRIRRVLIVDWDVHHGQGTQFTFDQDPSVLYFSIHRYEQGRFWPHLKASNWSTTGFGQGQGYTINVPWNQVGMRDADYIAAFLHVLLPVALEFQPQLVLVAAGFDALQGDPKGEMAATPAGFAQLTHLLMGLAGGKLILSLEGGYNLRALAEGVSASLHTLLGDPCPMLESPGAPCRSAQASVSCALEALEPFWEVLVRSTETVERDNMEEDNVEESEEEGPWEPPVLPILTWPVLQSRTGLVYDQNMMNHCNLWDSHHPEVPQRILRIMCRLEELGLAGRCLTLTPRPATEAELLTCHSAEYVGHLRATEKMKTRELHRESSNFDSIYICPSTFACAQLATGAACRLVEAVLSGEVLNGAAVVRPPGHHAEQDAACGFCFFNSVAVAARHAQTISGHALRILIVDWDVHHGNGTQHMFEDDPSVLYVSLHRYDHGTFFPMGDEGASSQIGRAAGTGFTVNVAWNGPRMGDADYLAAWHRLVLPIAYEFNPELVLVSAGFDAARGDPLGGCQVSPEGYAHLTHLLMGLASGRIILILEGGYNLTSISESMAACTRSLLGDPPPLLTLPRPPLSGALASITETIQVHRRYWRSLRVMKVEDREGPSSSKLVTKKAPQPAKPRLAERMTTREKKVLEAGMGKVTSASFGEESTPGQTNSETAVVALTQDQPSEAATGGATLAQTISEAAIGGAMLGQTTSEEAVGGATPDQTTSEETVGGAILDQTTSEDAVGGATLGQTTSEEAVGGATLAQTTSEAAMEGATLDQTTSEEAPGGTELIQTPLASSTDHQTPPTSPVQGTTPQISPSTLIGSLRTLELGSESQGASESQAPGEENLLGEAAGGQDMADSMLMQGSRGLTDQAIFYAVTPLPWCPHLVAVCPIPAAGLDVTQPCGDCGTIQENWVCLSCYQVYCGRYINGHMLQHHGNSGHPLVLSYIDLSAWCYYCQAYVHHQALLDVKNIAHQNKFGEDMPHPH
The experiment in a line: HDAC activity assay (fluorimetric, BPS Biosciences). Format: biochemical. As to conditions: class IIb in Table 4; mean ± SD (n = 2). Here is the method: HDAC1, 3, 6 and 7 activity assays were performed according to the manufacturer’s protocol (BPS Biosciences). […] The HDAC assay developer was added to the mixture and incubated the plate at rt for 15 min. The fluorescence intensity was measured using a Tecan Infinite F200 Pro plate reader.

As a reminder, the IC50 is the concentration that gives 50% inhibition. Take `O=C(NO)c1ccc(-c2nc3ccccc3s2)cc1` [Compound 9b]: half-maximal inhibition (IC50) required 95.9 ± 0.78 nM.

The record behind these values is PMC6742641, “Design, synthesis and biological evaluation of a series of CNS penetrant HDAC inhibitors structurally derived from amyloid-β probes” (Scientific Reports, 2019).
